Reference: US20100016285A1, “HETEROCYCLIDENE-N-(ARYL) ACETAMIDE DERIVATIVE” (MOCHIDA PHARMACEUTICAL CO., LTD., priority 2007, published 2010)
pIC50: −log10 of the molar value. Where two headings read alike, the source gives them in different places. Each block holds one compound with its values, some of them ahead of it.

Legend:
[1] = cited from earlier work; for Change of rat rectal temperature: reference information (Non-Patent Document 4 or 5); for Change in rectal temperature in rats: from published information (Non-Patent Document 4 or 5)
[2] = Effects on rectal temperature (8-1), oral administration to rats; assay type: in vivo, rat; details: oral single doses of 3, 10 and 30 mg/kg; 30, 60 and 120 minutes; maximum absolute difference vs vehicle
Procedure: (8-1) Effects on Rectal Temperature
A test compound was orally administered to rats at single doses of 3, 10 and 30 mg/kg. Then rectal temperature was measured 30, 60 and 120 minutes after administration.
(§1) Differences of the mean value between a group treated with test substance and a vehicle-treated group were calculated at all measuring points and, based on the maximum absolute value of differences, changes in rectal temperature were divided into the following three categories:
(§2) −: the maximum value was less than 0.5 degree Celsius +: the maximum value was more than 0.5 degree but less than 1.0 degree Celsius ++: the maximum value was more than 1.0 degree Celsius

[3] = Effects on rectal temperature (8-2), administration into tail veins of rats; assay type: in vivo, rat; details: Intravenous, single dose of 1 mg/kg; 15, 30 and 60 minutes; maximum absolute difference vs vehicle
Procedure: (§3) (8-2) Effects on Rectal Temperature
A test compound was administered to rats into tail veins at single dose of 1 mg/kg. Then rectal temperature was measured 15, 30 and 60 minutes after administration.
as §1, §2

human TRPV1 = target: T1, human TRPV1 (Homo sapiens, UniProt Q8NER1); assay: Capsaicin (10 nmol/L)-induced Ca influx in transformed CHO cells, FDSS-6000 (b-2), IC50; assay type: cell-based
T1 construct: expressed in transfected cells; host or cells: CHO-K1 cells, pCAGGS vector, clones selected by limiting dilution
T1 sequence (Q8NER1 whole entry): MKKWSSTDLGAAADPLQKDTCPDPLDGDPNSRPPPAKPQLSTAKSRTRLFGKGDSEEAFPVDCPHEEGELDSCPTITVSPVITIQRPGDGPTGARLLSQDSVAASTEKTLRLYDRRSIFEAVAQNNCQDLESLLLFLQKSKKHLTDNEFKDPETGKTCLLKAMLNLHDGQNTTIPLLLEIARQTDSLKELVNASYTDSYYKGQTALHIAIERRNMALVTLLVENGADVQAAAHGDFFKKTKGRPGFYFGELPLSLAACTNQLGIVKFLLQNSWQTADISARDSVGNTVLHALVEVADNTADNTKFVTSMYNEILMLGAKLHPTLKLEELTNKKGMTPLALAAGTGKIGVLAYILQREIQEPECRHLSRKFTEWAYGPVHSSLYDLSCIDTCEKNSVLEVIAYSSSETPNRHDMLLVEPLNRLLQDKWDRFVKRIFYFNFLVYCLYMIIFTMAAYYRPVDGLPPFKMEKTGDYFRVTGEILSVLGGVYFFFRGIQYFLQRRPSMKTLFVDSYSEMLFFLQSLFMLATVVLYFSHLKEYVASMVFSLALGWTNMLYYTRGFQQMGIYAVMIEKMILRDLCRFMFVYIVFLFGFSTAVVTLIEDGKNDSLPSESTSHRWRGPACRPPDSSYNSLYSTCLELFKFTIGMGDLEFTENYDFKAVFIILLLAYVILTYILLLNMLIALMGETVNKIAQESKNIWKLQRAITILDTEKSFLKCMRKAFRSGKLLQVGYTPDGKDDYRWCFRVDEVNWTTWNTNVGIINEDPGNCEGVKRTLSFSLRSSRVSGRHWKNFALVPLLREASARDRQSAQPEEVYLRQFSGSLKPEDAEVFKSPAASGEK
From the text: (1) Measurement of Capsaicin-Induced Ca Influx in a Transformed CHO Cell Line Expressing Human TRPV1
(a) Establishment of a Transformed CHO Cell Line Expressing Human and Rat TRPV1
Human and rat vanilloid receptor 1 (hTRPV1 and rTRPV1) cDNA was cloned from human brain and rat dorsal root ganglion, respectively. The cloned TRPV1 cDNA was incorporated in a pCAGGS vector. The vector was introduced to a CHO-K1 cell line, thus performing transformation. Clones obtained by limiting dilution were stimulated with capsaicin. Clones with a high responsiveness were selected using an increase in the Ca concentration as an indicator. The selected clones were used for the following experiment.
(b-2) Measurement of Ca Influx using FDSS-6000
The transformed CHO cells expressing human or rat TRPV1 were inoculated in a 96-well plate (with black walls and transparent bottoms, manufactured by Greiner) at a density of 40,000 cells per well. The cells were cultured at 37° C. in 5% CO2 atmosphere for one night. A loading solution of FLIPR Calcium 3 assay kit (manufactured by Molecular Devices Corporation) containing 2.5 mmol/L of probenecid was then added to each of the wells in the same amount as the culture medium, and the cells were cultured at 37° C. for 60 minutes. For three minutes after the cells were stimulated with capsaicin (10 nmol/L), the change of the intracellular Ca concentration was measured using FDSS-6000 (λex: 480 nm, λem: 540 nm, manufactured by Hamamatsu Photonics K.K.). The integrated values of the increase rate of the intracellular Ca concentration were calculated for a group treated with the compounds of the present invention and a group treated with a vehicle. Then, the concentration of the compound of the present invention was calculated that inhibits 50% of the intracellular Ca concentration increase induced by capsaicin (IC50). Using this value as the index, inhibitory effects of the test compounds were compared. In addition, when IC50 value in human TRPV1 was less than 100 nmol/L, it was shown as A in Table 1C.

[4] = Effects on rectal temperature (8-2), oral administration to rats; assay type: in vivo, rat; details: single dose of 10 mg/kg, 30, 60 and 120 minutes, maximum absolute difference vs vehicle
Procedure: as §3
A test compound was orally administered to rats at single dose of 10 mg/kg. Then rectal temperature was measured 30, 60 and 120 minutes after administration.
as §1, §2

SMILES: O=C(Nc1ccc(C(F)(F)F)cn1)N1CCN(c2ncccc2C(F)(F)F)CC1 [Compound A, 4-(3-trifluoromethylpyridine-2-yl)-N-(5-trifuluoromethylpiridine-2-yl)-1-piperadinecarboxamide]
Change of rat rectal temperature ([1]; Oral): Increase^1) | Change in rectal temperature in rats [1]: increased^1)

SMILES: O=C(/C=C1\CCCOc2cc(C(F)(F)F)ccc21)Nc1cccc2c1CC(O)CN2 (centres unmarked) [Compound D, (E)-2-(8-trifluoromethyl-3,4-dihydrobenzo[b]oxepin-5(2H)-ylidene)-N-(3-hydroxy-1,2,3,4-tetrahydroquinolin-5-yl)acetamide, reference compound]
Change in rectal temperature in rats [2]: ++ (increased) (the maximum value was more than 1.0 degree Celsius) | Change of rat rectal temperature [3]: + (Increase) (the maximum value was more than 0.5 degree but less than 1.0 degree Celsius)

pIC50 (human TRPV1): > 7.00
SMILES: CCN1C(=O)NCc2c(NC(=O)/C=C3\CC4(CCOCC4)Oc4cc(C(F)(F)F)ccc43)cccc21 [Example 312, (E)-2-(7-trifluoromethyl-spiro[chroman-2,4′-tetrahydropyran]-4-ylidene)-N-(3,4-dihydro-1-ethyl-2(1H)-quinazolinone-5-yl)acetamide]

pIC50 (human TRPV1): > 7.00
SMILES: CCN1C(=O)NCc2c(NC(=O)/C=C3\CCCOc4cc(C(F)(F)F)ccc43)cccc21 [Example 306, (E)-2-(3,4-dihydro-B-trifluoromethyl-1-benzoxepin-5(2H)-ylidene)-N-(3,4-dihydro-1-ethyl-2(1H)-quinazolinone-5-yl)acetamide]

pIC50 (human TRPV1): > 7.00
SMILES: CN1C(=O)NCc2c(NC(=O)/C=C3\CCOc4cc(C(F)(F)F)ccc43)cccc21 [Example 304, (E)-2-(7-trifluoromethylchroman-4-ylidene)-N-(3,4-dihydro-1-methyl-2(1H)-quinazolinone-5-yl)acetamide]

SMILES: CC(C)(C)c1ccc(/C=C/C(=O)Nc2ccc3c(c2)OCCO3)cc1 [Compound B, (E)-3-(4-t-butylphenyl)-N-(2,3-dihydrobenzo[b][1,4]dioxine-6-yl)acrylamide]
Change of rat rectal temperature ([1]; Intraperitoneal): Increase^1) | Change in rectal temperature in rats [1]: Increased^1)

SMILES: CC(=O)Nc1nc2c(Oc3cc(-c4ccc(C(F)(F)F)cc4)ncn3)cccc2s1 [Compound C, N-(4-[6-(4-trifluoromethyl-phenyl)-pyrimidin-4-yloxy]-benzothiazol-2-yl)-acetamide, reference compound]
Change in rectal temperature in rats [2]: ++ (increased) (the maximum value was more than 1.0 degree Celsius) | Change of rat rectal temperature [4]: ++ (Increase) (the maximum value was more than 1.0 degree Celsius)

pIC50 (human TRPV1): > 7.00
SMILES: CCN1C(=O)NCc2c(NC(=O)/C=C3\CCOCc4cc(C(F)(F)F)ccc43)cccc21 [Example 307, (E)-2-(3,4-dihydro-8-trifluoromethyl-2-benzoxepin-5(1H)-ylidene)-N-(3,4-dihydro-1-ethyl-2(1H)-quinazolinone-5-yl)acetamide]

pIC50 (human TRPV1): > 7.00
SMILES: CN1C(=O)NCc2c(NC(=O)/C=C3\CC(C)(C)Oc4cc(C(F)(F)F)ccc43)cccc21 [Example 305, (E)-2-(2,2-dimethyl-7-trifluoromethylchroman-4-ylidene)-N-(3,4-dihydro-1-methyl-2(1H)-quinazolinone-5-yl)acetamide]
Change of rat rectal temperature [3]: − (the maximum value was less than 0.5 degree Celsius)
